Publication PMC12261219, “Comparative Evaluation of Thiol- and Amine-Conjugating Moieties for Endogenous Albumin Binding after Intravenous Administration” (ACS Pharmacology & Translational Science, 2025)

Columns and labels:
albumin = target: T1, albumin (Homo sapiens, UniProt P02768); set-up: method as in Barbas et al.; settings: equimolar DFSA/albumin ratios; ref Barbas et al.; cited from earlier work
T1 construct: purchased Sigma-Aldrich A8763

[1] = Stability of oxaliplatin in PB at pH 7.4 (HPLC); format: physicochemical; settings: pH 7.4, 20 °C
Method: The samples were incubated at 20 °C and measured over 25 h. […] RP-HPLC runs were performed using a Waters Acquity UPLC HSS T3 column (100 Å, 1.8 μm, 3.0 mm × 50 mm) on a Dionex Thermo Scientific UltiMate 3000 HPLC system, equipped with a HPG-3400RS binary pump and a DAD-3000RS UV–vis detector. Chromatograms were evaluated at a wavelength of 230 nm. Milli-Q water (mobile phase A) and acetonitrile (mobile phase B), both containing 0.1% TFA, were used as eluents. The flow rate was consistent at 0.6 mL/min for all measurements using the following gradient: 0–0.5 min A 99:1 B, 0.5–5.5 min linear gradient to A 1:99 B, 5.5–6.5 min A 1:99 B, 6.5–9.2 min A 99:1 B.

[2] = set-up: method as in Schueffl et al.; settings: oxaliplatin data used from earlier paper, ref Schueffl et al., cited from earlier work
CT26 colon cancer cells = test system: CT26 colon cancer cells; set-up: method as in Schueffl et al.; settings: already described in earlier studies; ref Schueffl et al.; cited from earlier work
[3] = serum platinum, i.v. 9 mg/kg oxaliplatin

T1 sequence (P02768 25-609): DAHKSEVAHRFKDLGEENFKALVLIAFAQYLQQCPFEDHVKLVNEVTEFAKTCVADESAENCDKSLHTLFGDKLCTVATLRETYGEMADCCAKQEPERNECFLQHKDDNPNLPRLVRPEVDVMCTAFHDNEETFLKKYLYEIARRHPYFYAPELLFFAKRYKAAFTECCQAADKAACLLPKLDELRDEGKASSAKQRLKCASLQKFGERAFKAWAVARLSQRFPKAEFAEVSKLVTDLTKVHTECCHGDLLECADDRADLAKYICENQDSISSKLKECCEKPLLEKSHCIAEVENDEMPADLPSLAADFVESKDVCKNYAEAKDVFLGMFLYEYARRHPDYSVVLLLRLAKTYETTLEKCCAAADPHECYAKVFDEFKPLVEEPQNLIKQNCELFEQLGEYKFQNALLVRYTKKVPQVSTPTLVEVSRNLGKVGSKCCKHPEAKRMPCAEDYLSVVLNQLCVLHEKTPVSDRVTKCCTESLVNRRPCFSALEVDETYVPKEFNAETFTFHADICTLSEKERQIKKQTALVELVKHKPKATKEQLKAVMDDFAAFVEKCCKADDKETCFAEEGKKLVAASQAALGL

SMILES	Albumin binding after 24 h (albumin)	Hydrolysis after 25 h [1]	AUCPt_0-24 [2, 3]	AUCPt_0-∞ [2, 3]	Cmax ([2]; serum platinum, tmax=0.08 h)	Half-life ([2]; terminal half-life)	Vz ([2]; terminal phase)	Percentage of AUCPt_0-∞ extrapolated from tlast to infinity ([2]; tlast=24 h)	CL ([2]; total body clearance)	Effect on overall survival in the CT26 model (CT26 colon cancer cells)
O=C(O)C1=CCCCC1S(=O)(=O)Nc1ccc(F)cc1F (stereo not shown) [DFSA, 6-(N-(2,4-difluorophenyl)-sulfamoyl)-cyclohex-1-ene-1-carboxylic acid]	less than 25%									
O=C1[O][Pt]2([NH][C@@H]3CCCC[C@H]3[NH]2)[O]C1=O [oxaliplatin]		~15%	26.6 mg·h/kg	37.5 mg·h/kg	6.17 mg/kg	14.3 h	2.42 kg/kg	29.0%	0.118 kg/h/kg	does not lead to prolonged overall survival
